Here are results for twelve molecules from ChEMBL document CHEMBL1201862, “PubChem BioAssay data set” (2004).

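Grown in 96-well plates, cells were treated for 48 hours with each compound at five concentrations. Insufficient inhibition: endpoint recorded as highest concentration tested. Abbreviation: GI50, concentration required for 50% inhibition of growth.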 The source made the active and inactive calls. Cut-off read from the data, not from the text of the source: active = GI50 up to about 1.1 µM and inactive = higher.

Among the test systems are 786-0; ACHN; COLO 205; DLD-1; DMS-273; EKVX; HCT-15; HOP-62; K562; MOLT-4; Malme-3M; NCI-H23; SF-295; SF-539; SK-MEL-5; SN12C; SNB-75; MCF7; BT-549; PC-3.
Holding throughout (assay): DTP human tumour cell line panel, 48 h

With `Sc1nnc(COc2ccc(Cl)cc2)o1`, the GI50 in the assay with 786-0, with ACHN, with COLO 205, with DLD-1, in the assay on DMS-273 and with EKVX was > 100 µM (inactive) in each case. Besides, the GI50 (usually the concentration that inhibits growth by half) is 31.2 µM in the assay with HCT-15; > 100 µM (inactive) in the assay on HOP-62; > 100 µM (inactive) with K562; > 100 µM (inactive) with MOLT-4; > 100 µM (inactive) in the assay with Malme-3M; > 100 µM (inactive) in the assay with NCI-H23. Further, the GI50 with SF-295, with SF-539, in the assay on SK-MEL-5, with SN12C and in the assay with SNB-75 was > 100 µM (inactive) in each case.

Consider `O=C1CCC(c2nc3cc(Cl)ccc3o2)C(=O)N1` (stereo unspecified), for which the GI50 with 786-0, in the assay with ACHN, in the assay with COLO 205, in the assay on DLD-1, in the assay with DMS-273 and in the assay on EKVX was > 100 µM (inactive) throughout. The GI50 in the assay with HCT-15 was more than 100 µM; with HOP-62 it was > 100 µM (inactive); with K562, > 100 µM (inactive); with MOLT-4 it was > 100 µM (inactive); with Malme-3M, > 100 µM (inactive); in the assay on NCI-H23 it was > 100 µM (inactive). Also, the GI50 was > 100 µM (inactive) with SF-295; > 100 µM (inactive) with SF-539; > 100 µM (inactive) in the assay with SK-MEL-5; > 100 µM (inactive) in the assay with SN12C; 64.7 µM (inactive) in the assay with SNB-75.

As to `COC(=O)/C=C\C1C(C(=O)OC)C2(C(=O)OC)CCC1(C(=O)OC)N2` (stereo unspecified), the GI50 is 15.3 µM (inactive) with 786-0; 9.33 µM (inactive) in the assay with ACHN; 4.19 µM (inactive) with COLO 205; 3.25 µM (inactive) with DLD-1; 18.2 µM (inactive) in the assay with DMS-273; 27.2 µM (inactive) in the assay on EKVX. The GI50 in the assay with HCT-15 is 3.33 µM; with HOP-62 it was 18.1 µM (inactive); in the assay on K562, 12 µM (inactive); in the assay on MOLT-4 it was 3.77 µM (inactive); in the assay with Malme-3M, 5.98 µM (inactive); with NCI-H23 it was 18.7 µM (inactive). For the same molecule, the GI50 in the assay on SF-295 is 23.4 µM (inactive); in the assay with SF-539 it was 17.8 µM (inactive); with SK-MEL-5 it was 19.3 µM (inactive); in the assay on SN12C, 16.3 µM (inactive); in the assay with SNB-75, 18.5 µM (inactive).

As for `N#Cc1cnsc1`, the GI50 with 786-0, in the assay on ACHN, in the assay on COLO 205, in the assay on DLD-1, in the assay with DMS-273 and in the assay on EKVX was > 100 µM (inactive) throughout. Further, the GI50 with HCT-15 was more than 100 µM; with HOP-62 it was > 100 µM (inactive); in the assay with K562 it was > 100 µM (inactive); with MOLT-4, > 100 µM (inactive); with Malme-3M it was > 100 µM (inactive); in the assay with NCI-H23, > 100 µM (inactive). For the same molecule, the GI50 in the assay with SF-295, in the assay with SF-539, in the assay on SK-MEL-5, in the assay on SN12C and with SNB-75 was > 100 µM (inactive) in each case.

Consider `C[C@]12CCC(=O)C=C1CC[C@@H]1[C@@H]2[C@@H](O)C[C@@]2(C)[C@H]1CC[C@]2(O)C(=O)COC(=O)COCC(=O)O`, for which the GI50 with 786-0, in the assay on ACHN, in the assay with COLO 205, in the assay with DLD-1, with DMS-273 and with EKVX was > 100 µM (inactive) each time. Moreover, the GI50 with HCT-15 is more than 100 µM; with HOP-62 it was > 100 µM (inactive); in the assay on K562, > 100 µM (inactive); with MOLT-4, > 100 µM (inactive); in the assay with Malme-3M it was > 100 µM (inactive); in the assay on NCI-H23, > 100 µM (inactive). In addition, the GI50 in the assay with SF-295, in the assay with SF-539, in the assay with SK-MEL-5, with SN12C and in the assay with SNB-75 was > 100 µM (inactive) in each case.

Consider `COc1c2ccoc2c(S(=O)(=O)Nc2ccc(Cl)cc2)c2oc(C)cc(=O)c12`, for which the GI50 in the assay on COLO 205 was > 100 µM (inactive); with DLD-1, > 100 µM (inactive); with DMS-273, > 100 µM (inactive); with EKVX, > 100 µM (inactive); in the assay with HCT-15, more than 100 µM; in the assay on HOP-62, > 89.5 µM (inactive). Also, the GI50 in the assay with K562 was > 100 µM (inactive); in the assay with MCF7, 51.9 µM (inactive); in the assay on MOLT-4, > 100 µM (inactive); in the assay on Malme-3M it was 96.6 µM (inactive); with NCI-H23, > 100 µM (inactive); in the assay with SF-295, > 89.7 µM (inactive). The GI50 was 31.3 µM (inactive) in the assay on SF-539, > 79.8 µM (inactive) with SK-MEL-5, > 83.4 µM (inactive) in the assay with SN12C and 27.2 µM (inactive) with SNB-75.

Turning to `CC1CCC(C(C)C)C(O[C@@H]2OC(=O)C[C@@H]2Sc2ccccc2)C1` (stereo partly specified), the GI50 in the assay on 786-0 is 21 µM (inactive); in the assay on ACHN it was 20 µM (inactive); in the assay with COLO 205 it was 18.5 µM (inactive); in the assay with DLD-1, 33.1 µM (inactive); with DMS-273, 18.4 µM (inactive); in the assay with EKVX, 34 µM (inactive). Moreover, the GI50 was 19.5 µM in the assay on HCT-15; 32.1 µM (inactive) in the assay with HOP-62; 19.1 µM (inactive) with K562; 12 µM (inactive) in the assay on MOLT-4; 18.5 µM (inactive) with Malme-3M; 26.2 µM (inactive) in the assay on NCI-H23. Further, the GI50 in the assay on SF-295 is 21.1 µM (inactive); with SF-539, 23.5 µM (inactive); in the assay with SK-MEL-5, 16.2 µM (inactive); in the assay with SN12C it was 16.8 µM (inactive); in the assay with SNB-75, 33.3 µM (inactive).

In the case of `CC(C)(CN1CCCCC1)C(=O)/C=C/c1ccccc1`, the GI50 in the assay with 786-0 is 13.6 µM (inactive); with ACHN, 25.8 µM (inactive); in the assay with COLO 205 it was 16.4 µM (inactive); with DLD-1 it was 13.7 µM (inactive); in the assay on DMS-273 it was 13.5 µM (inactive); in the assay with EKVX it was 7.13 µM (inactive). Moreover, the GI50 in the assay on HCT-15 is 13.1 µM; in the assay on HOP-62 it was 24.7 µM (inactive); in the assay with K562, 3.4 µM (inactive); with MOLT-4, 10.3 µM (inactive); with Malme-3M it was 14.6 µM (inactive); in the assay with NCI-H23 it was 15.1 µM (inactive). In addition, the GI50 with SF-295 is 15.5 µM (inactive); in the assay with SF-539, 10.8 µM (inactive); with SK-MEL-5 it was 11.9 µM (inactive); in the assay with SN12C it was 15.4 µM (inactive); in the assay with SNB-75 it was 11.6 µM (inactive).

On to `COc1ccc(-c2cc(-c3ccco3)c(C#N)c(=O)[nH]2)cc1`, for which the GI50 in the assay with 786-0 was 91 µM (inactive); with ACHN, 87.5 µM (inactive); in the assay with COLO 205 it was > 100 µM (inactive); in the assay with DLD-1, > 100 µM (inactive); in the assay with DMS-273, 31 µM (inactive); with EKVX it was > 100 µM (inactive). Besides, the GI50 in the assay on HCT-15 was 57.7 µM; in the assay with HOP-62, 15.7 µM (inactive); with K562, > 100 µM (inactive); in the assay with MOLT-4, > 100 µM (inactive); in the assay on Malme-3M it was 29.8 µM (inactive); with NCI-H23 it was 86.7 µM (inactive). The GI50 is 65 µM (inactive) with SF-295; 15.8 µM (inactive) in the assay on SF-539; > 10 µM (inactive) with SK-MEL-5; 32.1 µM (inactive) with SN12C; 18 µM (inactive) in the assay on SNB-75.

With `Cn1c(=O)nc2n(-c3ccc(O)cc3)c3ccccc3nc-2c1=O`, the GI50 is 17.3 µM (inactive) with 786-0; 2.78 µM (inactive) in the assay on ACHN; 23.9 µM (inactive) with COLO 205; > 100 µM (inactive) in the assay on DLD-1; 11.5 µM (inactive) in the assay with DMS-273; > 100 µM (inactive) in the assay with EKVX. Moreover, the GI50 with HCT-15 is more than 100 µM; in the assay with HOP-62 it was 55.8 µM (inactive); in the assay on K562 it was > 100 µM (inactive); with MOLT-4, 54.5 µM (inactive); in the assay on Malme-3M, 18.9 µM (inactive); in the assay on NCI-H23, 23.3 µM (inactive). The GI50 in the assay on SF-295 is > 100 µM (inactive); in the assay with SF-539, 5.56 µM (inactive); with SK-MEL-5, 18.7 µM (inactive); in the assay on SN12C, > 100 µM (inactive); in the assay with SNB-75, 9.23 µM (inactive).

For `O=C(C#Cc1cnc(O)nc1O)c1ccccc1Cl`, the GI50 is 18 µM (inactive) with 786-0; 17.3 µM (inactive) with ACHN; 15.7 µM (inactive) in the assay with COLO 205; 15.5 µM (inactive) with DLD-1; 19.1 µM (inactive) in the assay on DMS-273; 20 µM (inactive) with EKVX. Besides, the GI50 in the assay with HCT-15 was 15 µM; with HOP-62, > 100 µM (inactive); with K562 it was 4.83 µM (inactive); with MOLT-4 it was 10.3 µM (inactive); in the assay with Malme-3M, 13.3 µM (inactive); with NCI-H23, 17.1 µM (inactive). The GI50 in the assay on SF-295 is > 100 µM (inactive); in the assay with SF-539, 16.3 µM (inactive); in the assay with SK-MEL-5 it was 15 µM (inactive); with SN12C it was 14.1 µM (inactive); with SNB-75, 19.9 µM (inactive).

For the molecule `O=C(CCBr)N1CCN(C(=O)CCBr)CC1` [PIPOBROMAN], the GI50 in the assay on 786-0 was 57.9 µM (inactive); with ACHN, 29 µM (inactive); in the assay with BT-549, 61.8 µM (inactive); with COLO 205, 92.3 µM (inactive); in the assay with DLD-1 it was 90.2 µM (inactive); in the assay on DMS-273, 28.8 µM (inactive). In addition, the GI50 in the assay on EKVX was 85.7 µM (inactive); with HCT-15 it was 83.8 µM; in the assay with HOP-62, 60.3 µM (inactive); with K562, 131 µM (inactive); in the assay with MCF7 it was 52.4 µM (inactive); with MOLT-4 it was 13.4 µM (inactive). In addition, the GI50 with Malme-3M is 101 µM (inactive); in the assay with NCI-H23 it was 56.4 µM (inactive); with PC-3, 113 µM (inactive); in the assay on SF-295, 57.3 µM (inactive); in the assay with SF-539, 62.5 µM (inactive); in the assay with SK-MEL-5, 64.1 µM (inactive). Also, the figures for the GI50 in the assay on SN12C and with SNB-75 were 42.6 µM (inactive) and 71.4 µM (inactive), respectively.
